# Assay results taken from patent US20250282757A1, “ARYL ETHER-SUBSTITUTED HETEROCYCLIC COMPOUNDS AS GLP1R AGONISTS” (MINDRANK AI LTD., priority 2021, published 2025).
# Molecular target: GLP-1R (Homo sapiens, UniProt P43220)
# Experiment: Agonist activity on GLP-1R, HTRF cAMP detection in stably transfected GLP-1R/HEK293 cells
# Assay type: cell-based
# Settings: for EC50: 30 min incubation; for Max activity: relative to top concentration of reference GLP-1(7-37)
# Method: Detection of Agonist Activity of the Test Compounds on GLP-1R
# • 1) The test compound was dissolved in DMSO and diluted 4-fold with Bravo for a total of 10 concentration gradients (the starting concentration was 1 mM). […] HBSS (10 mL) pre-warmed at 37° C. was added, mixed gently, and centrifuged at 1000 rpm for 5 minutes. The supernatant was discarded and another 10 mL of […] was added and mixed gently. […] The plate was shaken to mix at 2000 rpm for 60 seconds. • 7) The cells in the 384-well plate were incubated in CO2 cell incubator at 37° C. for 30 min. • 8) 10 μL of HTRF cAMP detection solution was added to the 384-well plate, stick with sealing film, and incubated at room temperature for 1 hour. • 9) After 1 hour of incubation, the sealing film was removed. The plate was put into the EnVision microplate reader to read the values of OD665 nm and OD615 nm.
# GLP-1R, sequence (P43220 24-463): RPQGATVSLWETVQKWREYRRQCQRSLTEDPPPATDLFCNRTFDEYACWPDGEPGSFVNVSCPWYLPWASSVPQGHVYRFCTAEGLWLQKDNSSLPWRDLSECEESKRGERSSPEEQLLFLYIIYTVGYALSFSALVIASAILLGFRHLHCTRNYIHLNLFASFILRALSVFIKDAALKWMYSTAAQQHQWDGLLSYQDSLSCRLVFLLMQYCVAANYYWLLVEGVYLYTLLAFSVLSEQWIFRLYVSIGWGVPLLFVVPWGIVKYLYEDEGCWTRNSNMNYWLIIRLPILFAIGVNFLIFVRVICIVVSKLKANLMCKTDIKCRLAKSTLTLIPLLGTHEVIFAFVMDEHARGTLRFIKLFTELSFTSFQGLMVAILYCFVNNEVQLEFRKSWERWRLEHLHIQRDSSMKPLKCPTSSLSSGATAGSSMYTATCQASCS
Compound,EC50 [nM],Max activity [%]
"CCn1cncc1Cn1c(CN2CCC(Oc3ccc(F)c(OCc4ccc(Cl)cc4F)n3)CC2)nc2ccc(C(=O)O)cc21 [Compound C11, 2-((4-((6-((4-chloro-2-fluorobenzyl)oxy)-5-fluoropyridin-2-yl)oxy)piperidin-1-yl)methyl)-1-((1-ethyl-1H-imidazol-5-yl)methyl)-1H-benzo[d]imidazole-6-carboxylic acid]",1.48,114.8
"N#CCC1(Cn2c(CN3CCC(Oc4cccc(CSc5ccc(C#N)cc5F)n4)CC3)nc3ccc(C(=O)O)cc32)CC1 [Compound C13, 2-((4-((6-(((4-cyano-2-fluorophenyl)thio)methyl)pyridin-2-yl)oxy)piperidin-1-yl)methyl)-1-((1-(cyanomethyl)cyclopropyl)methyl)-1H-benzo[d]imidazole-6-carboxylic acid]",1.82,141.7
"C#Cc1ccc(OCc2cccc(OC3CCN(Cc4nc5ccc(C(=O)O)cc5n4C[C@@H]4CCO4)CC3)n2)c(F)c1 [Compound C15, (S)-2-((4-((6-((4-ethynyl-2-fluorophenoxy)methyl)pyridin-2-yl)oxy)piperidin-1-yl)methyl)-1-(oxetan-2-ylmethyl)-1H-benzo[d]imidazole-6-carboxylic acid]",0.807,109.1
"CCn1cncc1Cn1c(CN2CCC(Nc3cccc(COc4ccc(C#N)cc4F)n3)CC2)nc2ccc(C(=O)O)cc21 [Compound C17, 2-((4-((6-((4-cyano-2-fluorophenoxy)methyl)pyridin-2-yl)amino)piperidin-1-yl)methyl)-1-((1-ethyl-1H-imidazol-5-yl)methyl)-1H-benzo[d]imidazole-6-carboxylic acid]",0.668,127.7
"O=C(O)c1ccc2nc(CN3CCC(Oc4cccc(COc5ccc(Br)cc5F)n4)CC3)n(Cc3cncn3CC3CC3)c2c1 [Compound C19, 2-((4-((6-((4-bromo-2-fluorophenoxy)methyl)pyridin-2-yl)oxy)piperidin-1-yl)methyl)-1-((1-(cyclopropylmethyl)-1H-imidazol-5-yl)methyl)-1H-benzo[d]imidazole-6-carboxylicacid]",1.07,134.3
"N#Cc1ccc(OCc2cccc(OC3CCN(Cc4nc5ccc(C(=O)O)cc5n4Cc4cncn4CC4CC4)CC3)c2)c(F)c1 [Compound C20, 2-((4-(3-((4-cyano-2-fluorophenoxy)methyl)phenoxy)piperidin-1-yl)methyl)-1-((1-(cyclopropylmethyl)-1H-imidazol-5-yl)methyl)-1H-benzo[d]imidazole-6-carboxylic acid]",0.425,137.0
"N#Cc1ccc(OCc2cccc(Oc3ccc(Cc4nc5ccc(C(=O)O)cc5n4C[C@@H]4CCO4)cc3)n2)c(F)c1 [Compound C27, (S)-2-(4-((6-((4-cyano-2-fluorophenoxy)methyl)pyridin-2-yl)oxy)benzyl)-1-(oxetan-2-ylmethyl)-1H-benzo[d]imidazole-6-carboxylic acid]",8.03,
"CCn1cncc1Cn1c(Cc2ccc(Oc3cccc(COc4ccc(C#N)cc4F)n3)cc2)nc2ccc(C(=O)O)cc21 [Compound C28, 2-(4-((6-((4-cyano-2-fluorophenoxy)methyl)pyridin-2-yl)oxy)benzyl)-1-((1-ethyl-1H-imidazol-5-yl)methyl)-1H-benzo[d]imidazole-6-carboxylic acid]",5.05,
"C#Cc1ccc(OCc2cccc(OC3CCN(Cc4nc5ccc(C(=O)O)cc5n4Cc4cncn4C(C)C)CC3)c2)c(F)c1 [Compound C29, 2-((4-(3-((4-ethynyl-2-fluorophenoxy)methyl)phenoxy)piperidin-1-yl)methyl)-1-((1-isopropyl-1H-imidazol-5-yl)methyl)-1H-benzo[d]imidazole-6-carboxylic acid]",6.83,121.6
"CC(C)n1cncc1Cn1c(CN2CCC(Oc3cccc(COc4ccc(C#N)cc4F)n3)CC2)nc2ccc(C(=O)O)cc21 [Compound C31, 2-((4-((6-((4-cyano-2-fluorophenoxy)methyl)pyridin-2-yl)oxy)piperidin-1-yl)methyl)-1-((1-isopropyl-1H-imidazol-5-yl)methyl)-1H-benzo[d]imidazole-6-carboxylic acid]",0.833,106.6

# Continued by falling EC50, values first:
EC50 [nM],Max activity [%],Compound
30.4,,"Cn1c(CN2CCC(Oc3cccc(COc4ccc(Cl)cc4F)n3)CC2)nc2ccc(C(=O)O)cc21 [Compound C22, 2-((4-((6-((4-chloro-2-fluorophenoxy)methyl)pyridin-2-yl)oxy)piperidin-1-yl)methyl)-1-methyl-1H-benzo[d]imidazole-6-carboxylic acid]"
5.85,121.2,"CC(C)n1cncc1Cn1c(CN2CCC(Oc3cccc(COc4ccc(Br)cc4F)c3)CC2)nc2ccc(C(=O)O)cc21 [Compound C30, 2-((4-(3-((4-bromo-2-fluorophenoxy)methyl)phenoxy)piperidin-1-yl)methyl)-1-((1-isopropyl-1H-imidazol-5-yl)methyl)-1H-benzo[d]imidazole-6-carboxylic acid]"
2.54,99.2,"N#Cc1ccc(OCc2cccc(NC3CCN(Cc4nc5ccc(C(=O)O)cc5n4C[C@@H]4CCO4)CC3)n2)c(F)c1 [Compound C16, (S)-2-((4-((6-((4-cyano-2-fluorophenoxy)methyl)pyridin-2-yl)amino)piperidin-1-yl)methyl)-1-(oxetan-2-ylmethyl)-1H-benzo[d]imidazole-6-carboxylic acid]"
1.67,76.88,"CCn1cncc1Cn1c(Cc2ccc(Oc3cccc(COc4ccc(Cl)cc4F)n3)cc2)nc2ccc(C(=O)O)cc21 [Compound C24, 2-(4-((6-((4-chloro-2-fluorophenoxy)methyl)pyridin-2-yl)oxy)benzyl)-1-((1-ethyl-1H-imidazole-5-yl)methyl)-1H-benzo[d]imidazole-6-carboxylic acid]"
0.512,133.4,"C#Cc1ccc(OCc2cccc(OC3CCN(Cc4nc5ccc(C(=O)O)cc5n4CC4(CC#N)CC4)CC3)n2)c(F)c1 [Compound C25, 1-((1-(cyanomethyl)cyclopropyl)methyl)-2-((4-((6-((4-ethynyl-2-fluorophenoxy)-methyl)pyridine-2-yl)oxy)piperidin-1-yl)methyl)-1H-benzo[d]imidazole-6-carboxylic acid]"
0.315,101.9,C#Cc1ccc(OCc2cccc(OC3CCN(Cc4nc5ccc(C(=O)O)cc5n4Cc4cncn4CC)CC3)n2)c(F)c1 [Compound C14]
0.233,125.5,"CCn1cncc1Cn1c(CN2CCC(Oc3cccc(CSc4ccc(C#N)cc4F)n3)CC2)nc2ccc(C(=O)O)cc21 [Compound C12, 2-((4-((6-(((4-cyano-2-fluorophenyl)thio)methyl)pyridin-2-yl)oxy)piperidin-1-yl)methyl)-1-((1-ethyl-1H-imidazol-5-yl)methyl)-1H-benzo[d]imidazole-6-carboxylic acid]"
0.215,117.3,"N#CCC1(Cn2c(CN3CCC(Oc4cccc(COc5ccc(Br)cc5F)n4)CC3)nc3ccc(C(=O)O)cc32)CC1 [Compound C26, 2-((4-((6-((4-bromo-2-fluorophenoxy)methyl)pyridin-2-yl)oxy)piperidin-1-yl)methyl)-1-((1-(cyanomethyl)cyclopropyl)methyl)-1H-benzo[d]imidazole-6-carboxylic acid]"
